The results in this text go back to PubChem BioAssay AID1645863 (Buhrlage Lab, Dana-Farber Cancer Institute and Novartis …, 2021).

Molecules are shown by their SMILES. pIC50: −log10 of the molar value. Active and inactive are the calls of the source. No rule for the calls is given here. Bounds are passed on as bounds.

The target in the experiment is Ubiquitin carboxyl-terminal hydrolase 10 (Homo sapiens) (UniProt Q14694). The experiment can be described thus: primary hit verification, biochemical, ubiquitin-specific protease 10 deubiquitylase inhibitors, concentration-effect titration (AID 1645863).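 Also: potency values describe inhibition of USP10 cleavage of a fluorogenic ubiquitin substrate.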 The conditions noted are these: USP10 deubiquitinase enzymatic assay.
Ubiquitin carboxyl-terminal hydrolase 10 (Homo sapiens), sequence (Q14694 whole entry, looked up): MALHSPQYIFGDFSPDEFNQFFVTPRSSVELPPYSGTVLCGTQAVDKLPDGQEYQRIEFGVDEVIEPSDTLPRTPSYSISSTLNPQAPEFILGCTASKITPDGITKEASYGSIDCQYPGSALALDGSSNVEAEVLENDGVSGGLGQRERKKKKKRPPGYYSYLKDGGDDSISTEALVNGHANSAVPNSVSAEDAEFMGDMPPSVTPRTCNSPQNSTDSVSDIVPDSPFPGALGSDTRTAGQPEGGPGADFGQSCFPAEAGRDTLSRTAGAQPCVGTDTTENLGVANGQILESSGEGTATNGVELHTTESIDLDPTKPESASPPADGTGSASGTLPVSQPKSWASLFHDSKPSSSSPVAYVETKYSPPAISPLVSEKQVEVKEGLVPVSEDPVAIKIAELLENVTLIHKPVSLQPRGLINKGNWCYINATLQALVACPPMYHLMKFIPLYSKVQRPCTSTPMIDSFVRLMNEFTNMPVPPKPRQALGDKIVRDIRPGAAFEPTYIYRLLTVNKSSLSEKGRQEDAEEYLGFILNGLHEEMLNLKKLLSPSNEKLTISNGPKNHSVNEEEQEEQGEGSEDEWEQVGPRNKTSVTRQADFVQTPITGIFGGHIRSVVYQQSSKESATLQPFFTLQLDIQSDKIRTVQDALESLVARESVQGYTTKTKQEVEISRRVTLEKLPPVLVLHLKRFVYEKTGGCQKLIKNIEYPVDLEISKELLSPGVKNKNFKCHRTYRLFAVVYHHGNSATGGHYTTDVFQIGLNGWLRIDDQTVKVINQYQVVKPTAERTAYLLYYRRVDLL
In the case of `O=C(Nc1ccc(Cn2cnc(-c3nc(-c4ccccc4)no3)c2)cc1)c1ccccc1F`, the IC50 is > 40 µM (inactive).
Same read-out and setting: to `O=C(Nc1ccccc1)[C@@H]1[C@@H]2C(=O)N(c3ccc([N+](=O)[O-])cc3)C(=O)[C@@H]2[C@H]2c3ccccc3C=CN12` belongs > 40 µM (inactive); to `Cc1cc(=O)[nH]c(NC2CCN(S(=O)(=O)c3ccccc3C(F)(F)F)CC2)n1`, > 40 µM (inactive).
`O=C(CCc1ccc(S(=O)(=O)N2CCOCC2)cc1)OCC(=O)c1ccc(-c2ccccc2)cc1`: the pIC50 is 4.41.
Take `CCNS(=O)(=O)c1ccc(-c2ccc(-n3cnnn3)cc2)cc1`: the IC50 is > 40 µM (inactive).
The same measure, in the same setting: the result for `CCOc1ccccc1-c1cc(NC(=O)c2cc3ccc4cccnc4c3[nH]2)on1` reads > 40 µM (inactive).
For `O=C(NCC1(c2ccccc2)CCC1)c1nc2n(n1)-c1ccccc1S(=O)(=O)N2`, the pIC50 was 4.89.
On the same count and under the same terms, to `CC(C)=CCOC(C)(C)[C@H]1OC2CC[C@@]3(C)C(CCC4Cc5c([nH]c6ccccc56)[C@@]43C)C23OC3[C@@H]1O` (some centres not stated) belongs 4.97; to `CCCCCCCCCCCCCCCc1cc(O)cc(O)c1C(=O)O`, 4.71.
Same read-out and setting: the result for `CCOc1ccc2cc3c(nc2c1)OC(=O)N(Cc1ccc(OC)cc1)C3` reads 5.24.
With `O=C(CSc1ccc2nnc(-c3ccc(Cl)cc3)n2n1)N1CCCCC1`, the IC50 is > 40 µM (inactive).
On the same count and under the same terms, the result for `COc1ccccc1CNC(=O)Cn1cnc2c(-c3ccccc3)csc2c1=O` reads > 40 µM (inactive).
Same read-out and setting: the result for `COc1ccc(CC(=O)OCC(=O)N2c3ccccc3NC(=O)C2(C)C)cc1` reads > 40 µM (inactive); that for `NS(=O)(=O)c1ccc(CNS(=O)(=O)/C=C/c2ccccc2)cc1`, > 40 µM (inactive).
As to `CCC(C(=O)C(C)C(O)C(C)CCc1ccc(C)c(O)c1C(=O)O)C1OC(CC)(C2CCC(O)(CC)C(C)O2)CC1C` (configuration not stated), the pIC50 is 5.00.
On the same count and under the same terms, to `CC(C)c1ccc(NC(=O)COC(=O)c2ccc(NS(=O)(=O)c3ccc4c(c3)OCCO4)cc2)cc1` belongs 4.65.
In the case of `CCc1ccc(-n2c(C)cc(/C=C3\C(=N)N4N=CSC4=NC3=O)c2C)cc1`, the IC50 was > 40 µM (inactive).
The same measure, in the same setting: to `Cc1ccc(C)c(Cn2cnc3c(nnn3-c3cccc(F)c3)c2=O)c1` belongs > 40 µM (inactive); to `Cc1ccc(-n2c(=O)[nH]c3c(C(N)=O)nc(-c4ccc(OCc5ccccc5)cc4)nc32)cc1`, > 40 µM (inactive).
Take `Cc1ccc(C(=O)c2cn(CC(=O)Nc3ccccc3)c3ccc(C)cc3c2=O)cc1`: the IC50 was > 40 µM (inactive).
On to `Cc1ccc(NC(=O)Cc2sc(Nc3ccc(C)cc3)nc2O)cc1`, for which the IC50 is > 40 µM (inactive).
Same read-out and setting: to `COc1ccc(C2(c3nnc(C(C)Oc4ccc(F)cc4)o3)CCOCC2)cc1` (configuration not stated) belongs > 40 µM (inactive); to `Cc1ccc(NC(=O)c2cc(-c3cccnc3)n[nH]2)cc1F`, > 40 µM (inactive); to `CS(=O)(=O)c1cccc(C(=O)Nc2sc3c(c2C(N)=O)CCCC3)c1`, > 40 µM (inactive).
The same measure, in the same setting: the result for `CCCCOc1ccc(C(=O)n2ccn(S(=O)(=O)c3ccc(C)cc3)c2=O)cc1` reads > 40 µM (inactive); that for `CNc1ccc(-c2noc([C@@H]3CCCN3Cc3cccc(C#N)c3)n2)cn1`, > 40 µM (inactive); that for `COc1ccc(-c2c(NC(=O)C3COc4ccccc4O3)n[nH]c2C)cc1OC` (configuration not stated), > 40 µM (inactive).
Turning to `Cc1cc(C)c(NC(=O)Cn2c(=O)n(CCC(=O)NCc3ccc4c(c3)OCO4)c(=O)c3sccc32)c(C)c1`, the pIC50 is 4.67.
For the compound `COc1cc(OC)c(NC(=O)Cn2c(=O)n(Cc3ccccc3Cl)c(=O)c3cc(OC)c(OC)cc32)cc1Cl`, the IC50 was > 40 µM (inactive).
Take `COc1ccc(N/C=C/c2onc(C)c2[N+](=O)[O-])c(OC)c1`: the IC50 was > 40 µM (inactive).
The same measure, in the same setting: to `Cc1cc(=O)[nH]c(SCC(=O)c2cc(C)n(CCC3=CCCCC3)c2C)c1C#N` belongs > 40 µM (inactive).
Same read-out and setting: to `Cn1cc(C(=O)NCC2COc3ccccc3O2)c(=O)c2cc(S(=O)(=O)N3CCCCC3)ccc21` (configuration not stated) belongs > 40 µM (inactive).
Turning to `O=C1CSC(c2ccc(F)cc2)c2c(n(C3CCCCCC3)[nH]c2=O)N1` (configuration not stated), the pIC50 was 4.49.
Take `COC(=O)c1ccc2c(=O)n(-c3ccc(C)c(F)c3)c(N3CCC(C(N)=O)CC3)nc2c1`: the IC50 is > 40 µM (inactive).
Still for that read-out and setting: the result for `Cc1ccc2c(c1)c(=O)c(C(=O)c1ccccc1)cn2CC(=O)Nc1ccc2c(c1)OCO2` reads > 40 µM (inactive); that for `O=C(CCSc1ccc(Cl)cc1)c1cccs1`, > 40 µM (inactive); that for `N#Cc1ccc(NC(=O)Nc2cccn(Cc3c(F)cccc3Cl)c2=O)cc1`, > 40 µM (inactive).
As to `Fc1cccc(Nc2ncnc3c2oc2ccccc23)c1`, the IC50 was > 40 µM (inactive).
For the compound `COc1ccc(CCC(=O)Nc2nnc(C3CC(=O)N(c4ccc(C)cc4)C3)s2)cc1` (configuration not stated), the pIC50 is 4.87.
Regarding `COc1ccc(C(=O)COC(=O)c2cccc(NC(=O)c3ccc(Cl)cc3)c2)cc1`, the IC50 is > 40 µM (inactive).
The same measure, in the same setting: the result for `O=C(NCc1ccc2c(c1)OCO2)c1cc2c(s1)-c1ccccc1OC2` reads > 40 µM (inactive); that for `CCOc1cc2c(cc1OCC)C(c1cc3c(cc1Br)OCO3)NCC2` (configuration not stated), > 40 µM (inactive).
Still for that read-out and setting: the result for `CCOc1ccccc1NC(=O)Cn1c(=O)n(CCCC(=O)NCc2ccc(C)cc2)c(=O)c2sccc21` reads > 40 µM (inactive).
Same read-out and setting: to `Cc1c(OCC(=O)NCc2ccccc2Cl)ccc2c3c(c(=O)oc12)CCC3` belongs > 40 µM (inactive); to `Cc1nnc(-c2cc(S(=O)(=O)N3CCN(c4ccc(F)cc4)CC3)c[nH]2)o1`, > 40 µM (inactive).
As for `COc1ccc2nc(N3CC(C(=O)Nc4ccc(C(N)=O)cc4)C3)sc2c1`, the IC50 is > 40 µM (inactive).
Same read-out and setting: the result for `CCCCNC(=O)CSc1nnc(-c2cc3ccccc3n2C)o1` reads > 40 µM (inactive).
Consider `Cc1nnc(-c2ccc3ccn(CC(=O)N4CCN(c5ccccc5)CC4)c3c2)o1`, for which the IC50 was > 40 µM (inactive).
In the case of `COc1ccc(Cl)cc1NC(=O)Cn1c(=O)n(CCCCC(=O)NCCc2ccccc2)c(=O)c2ccccc21`, the pIC50 was 4.87.
Take `O=C(Nc1cccnc1)C1c2ccccc2C(=O)N(c2ccccc2)C12CCCCC2` (configuration not stated): the IC50 was > 40 µM (inactive).
With `CC(OC(=O)c1cc(S(=O)(=O)Nc2ccccc2F)ccc1Cl)C(=O)Nc1ccc([N+](=O)[O-])cc1C(F)(F)F` (configuration not stated), the pIC50 was 4.80.
On the same count and under the same terms, the result for `O=C(NCCc1nc2ccccc2n1CCCOc1ccccc1Cl)C1CCCCC1` reads 4.48.
On to `O=c1c2[nH]c3ccccc3c2ncn1CCC1=CCCCC1`, for which the IC50 was > 40 µM (inactive).
Turning to `CCCCCCCCCCCC1=C(O)C(=O)C=C(O)C1=O`, the pIC50 is 5.61.
On the same count and under the same terms, the result for `O=C(Nc1ccc(-c2cn3ccsc3n2)cc1)c1ccc(Cl)c([N+](=O)[O-])c1` reads 4.70.
With `COc1cccc(-c2cncc(C3CCN(S(=O)(=O)N(C)C)CC3)n2)c1`, the IC50 is > 40 µM (inactive).
The same measure, in the same setting: the result for `O=C(Nc1ccc(Cl)cc1F)c1cc(-c2ccccn2)n[nH]1` reads > 40 µM (inactive).
As to `COc1cc(O)cc2c1C(=O)OC(C)CCCCCCC2` (configuration not stated), the pIC50 was 4.53.
As for `Cc1ccc(CS(=O)(=O)c2cn(CC(=O)NCCc3ccccc3)c3ccccc23)cc1`, the IC50 is > 40 µM (inactive).
Same read-out and setting: the result for `CCOc1ccc2[nH]c(=O)c(-c3nc4ccc(C)cn4c3NCc3ccccc3)cc2c1` reads > 40 µM (inactive).
The same measure, in the same setting: to `O=C(/C=C/c1cccc([N+](=O)[O-])c1)N1CCc2ccccc21` belongs > 40 µM (inactive); to `COc1ccc(Sc2nc3ccccc3n3cnnc23)cc1`, > 40 µM (inactive).
Turning to `COc1ccc(CC(=O)Nc2c(NCc3ccccc3)c3ccccc3oc2=O)cc1`, the pIC50 was 4.42.
In the case of `Cn1c(O)c(C2=Nc3ccccc3SC(c3cccc(O)c3)C2)c(=O)[nH]c1=O` (configuration not stated), the IC50 was > 40 µM (inactive).
Turning to `Cc1nc2c(nnn2C[C@H]2CCCN2C(=O)c2ccc(F)cc2)c(=O)[nH]1`, the IC50 is > 40 µM (inactive).
Same read-out and setting: to `Cc1cc(N2CCOCC2)nc(N2CCN(C(=O)C(C)Oc3ccccc3)CC2)n1` (configuration not stated) belongs > 40 µM (inactive).
In the case of `CC(C)[C@H]1CC[C@@]2(CO2)[C@H]2C(=O)OCC(C(=O)O)=C[C@H]12`, the pIC50 was 4.66.
On the same count and under the same terms, the result for `O=C(CCCc1nnc2c(=O)n(-c3cccc(F)c3)ccn12)NCc1ccc(Cl)cc1` reads 4.74; that for `COC(=O)c1c(OC)cc2c(c1C)Oc1c(Cl)c(O)c(Cl)c(C)c1C(=O)O2`, 4.76.
Regarding `Cc1ccc(S(=O)(=O)Nc2ccccc2C(=O)Nc2nc3ccc(Br)cc3s2)cc1`, the IC50 was > 40 µM (inactive).
The same measure, in the same setting: the result for `COc1ccc(S(=O)(=O)N2CCc3ccccc32)cc1C(=O)Nc1ccc2c(c1)NC(=O)C(C)O2` (configuration not stated) reads > 40 µM (inactive); that for `Cc1ccccc1-c1noc(-c2cn(Cc3ccc(NC(=O)Cc4ccccc4)cc3)cn2)n1`, > 40 µM (inactive).
Regarding `CSc1ccc(CNC(=O)Cn2nc(C)c3c(C)n(-c4ccccc4)nc3c2=O)cc1`, the pIC50 is 4.99.
`COc1ccc(-c2cc3nc([C@H](C)NC(=O)Cc4cccc(F)c4)nn3cn2)cc1`: the IC50 is > 40 µM (inactive).
In the case of `O=C(NCc1ccc2c(c1)OCO2)c1cc2c(s1)CCC2`, the pIC50 is 4.88.
Consider `Cc1ccc(S(=O)(=O)NCc2ccc(C(=O)NCCc3ccc(S(N)(=O)=O)cc3)cc2)cc1`, for which the IC50 is > 40 µM (inactive).
With `Cc1ccccc1NC(=O)Cn1ccc2ccn(Cc3ccccc3)c2c1=O`, the IC50 was > 40 µM (inactive).
`COC(=O)c1ccc(C(=O)Nc2cc3ccccc3cc2NC(=O)c2ccc(C(=O)OC)cc2)cc1`: the IC50 is > 40 µM (inactive).
Same read-out and setting: to `Cc1c(C)n(-c2ccccc2)c2ncn(CC(=O)NCc3cccc(F)c3)c(=O)c12` belongs > 40 µM (inactive).
With `O=C(CSc1nc2ccccc2[nH]1)Nc1cccc2c1OCCO2`, the IC50 was > 40 µM (inactive).
On to `O=C(CCCc1nnc2c(=O)n(-c3cccc(F)c3)ccn12)NCc1ccc(F)cc1`, for which the pIC50 is 4.45.
As for `C[C@@H]1OC2=C(C(=O)c3cccc(O)c3C2=O)[C@H](O)[C@@H]1O`, the pIC50 is 5.21.
